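Growth conditions: 96-well plates. Treatment: test compound, 48 hours, 5 concentrations. Analysis: linear interpolation between bracketing concentrations; unreached endpoints set to highest concentration. Abbreviation: GI50, concentration required for 50% inhibition of growth. TGI marks complete inhibition of growth.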
What was measured:
Experiment in all cases: inhibition of tumour cell growth, NCI panel, 48 h
786-0 renal = system: 786-0 renal
A498 renal = system: A498 renal
HL-60(TB) leukemia = system: HL-60(TB) leukemia
HOP-62 NSCLC = system: HOP-62 NSCLC
MCF7 breast = system: MCF7 breast
MDA-MB-435 = system: MDA-MB-435
NCI-H460 lung = system: NCI-H460 lung
NCI/ADR-RES ovarian = system: NCI/ADR-RES ovarian
SK-MEL-2 melanoma = system: SK-MEL-2 melanoma
SK-MEL-28 melanoma = system: SK-MEL-28 melanoma

## CCSC[C@@H]1C[C@](O)(c2ccccc2)[C@@H](c2ccccc2)O1
786-0 renal
  GI50: > 100 µM
  TGI: > 100 µM
A498 renal
  GI50: 69.9 µM
  TGI: > 100 µM
HL-60(TB) leukemia
  GI50: 9.84 µM
  TGI: > 50.7 µM
HOP-62 NSCLC
  GI50: > 100 µM
  TGI: > 100 µM
MCF7 breast
  GI50: 74.6 µM
  TGI: > 100 µM
MDA-MB-435
  GI50: > 94.6 µM
  TGI: > 100 µM
NCI-H460 lung
  GI50: > 76.1 µM
  TGI: > 100 µM
NCI/ADR-RES ovarian
  GI50: 77.8 µM
  TGI: > 100 µM
SK-MEL-2 melanoma
  GI50: > 100 µM
  TGI: > 100 µM
SK-MEL-28 melanoma
  GI50: > 100 µM
  TGI: > 100 µM

## CCn1cc(C(=O)O)c(=O)c2cc(F)c(N3CCN(S(=O)(=O)c4ccc(Cl)cc4Cl)CC3)cc21
786-0 renal
  GI50: 3.19 µM
  TGI: 14.9 µM
A498 renal
  GI50: 3 µM
  TGI: 30 µM
HL-60(TB) leukemia
  GI50: 2.22 µM
  TGI: 5.15 µM
HOP-62 NSCLC
  GI50: 3.08 µM
  TGI: 9.95 µM
MCF7 breast
  GI50: 2.95 µM
  TGI: 15.2 µM
MDA-MB-435
  GI50: 1.97 µM
  TGI: 4.44 µM
NCI-H460 lung
  GI50: 3.13 µM
  TGI: 15.9 µM
NCI/ADR-RES ovarian
  GI50: 3.28 µM
  TGI: 28 µM
SK-MEL-2 melanoma
  GI50: 2.75 µM
  TGI: 5.8 µM
SK-MEL-28 melanoma
  GI50: 3.22 µM
  TGI: 13.7 µM

## Cc1cc(C)c2nc3c(c(C(O)C4CCCCN4)c2c1)CC/C3=C\c1ccc(Cl)cc1 (stereo not given)
786-0 renal
  TGI: > 100 µM
A498 renal
  TGI: > 100 µM
HL-60(TB) leukemia
  TGI: 67.6 µM
HOP-62 NSCLC
  TGI: > 100 µM
MCF7 breast
  TGI: > 100 µM
MDA-MB-435
  TGI: > 100 µM
NCI-H460 lung
  TGI: > 100 µM
NCI/ADR-RES ovarian
  TGI: > 100 µM
SK-MEL-2 melanoma
  TGI: > 100 µM
SK-MEL-28 melanoma
  TGI: > 100 µM

## CC[C@H](C)[C@H](NC(=O)[C@H]1CCCCN1C)C(=O)N(C)[C@H](CCc1nc(C(=O)N[C@@H](Cc2ccccc2)C[C@H](C)C(=O)O)cs1)C(C)C
786-0 renal
  GI50: 0.476 µM
  TGI: > 25 µM
A498 renal
  GI50: 0.272 µM
  TGI: > 25 µM
HL-60(TB) leukemia
  GI50: 0.0553 µM
  TGI: 0.174 µM
HOP-62 NSCLC
  GI50: 0.208 µM
  TGI: > 25 µM
MCF7 breast
  GI50: 0.0271 µM
  TGI: > 25 µM
MDA-MB-435
  GI50: 0.012 µM
  TGI: 0.0724 µM
NCI-H460 lung
  GI50: 0.164 µM
  TGI: > 25 µM
NCI/ADR-RES ovarian
  GI50: > 25 µM
  TGI: > 25 µM
SK-MEL-2 melanoma
  GI50: 0.0789 µM
  TGI: > 25 µM
SK-MEL-28 melanoma
  GI50: > 25 µM
  TGI: > 25 µM

## O=C1CCC(c2ccccc2)=NN1c1nc2ccccc2s1
786-0 renal
  TGI: > 100 µM
A498 renal
  TGI: > 100 µM
HL-60(TB) leukemia
  TGI: 99.2 µM
HOP-62 NSCLC
  TGI: > 100 µM
MCF7 breast
  TGI: > 100 µM
MDA-MB-435
  TGI: 69.7 µM
NCI-H460 lung
  TGI: > 64.4 µM
NCI/ADR-RES ovarian
  TGI: 76.6 µM
SK-MEL-2 melanoma
  TGI: 42.5 µM
SK-MEL-28 melanoma
  TGI: > 100 µM

## CCN(CC)c1ccc(/C=N/NC(=O)Cc2ccc(Nc3ccnc(C(F)(F)F)c3)cc2)c(O)c1
786-0 renal
  GI50: 0.626 µM
  TGI: > 100 µM
A498 renal
  GI50: 2.64 µM
  TGI: > 89.5 µM
HL-60(TB) leukemia
  GI50: 0.301 µM
  TGI: 1.62 µM
HOP-62 NSCLC
  GI50: 0.566 µM
  TGI: > 100 µM
MCF7 breast
  GI50: 0.461 µM
  TGI: > 100 µM
MDA-MB-435
  GI50: 1.29 µM
  TGI: > 100 µM
NCI-H460 lung
  GI50: 0.351 µM
  TGI: > 39.7 µM
NCI/ADR-RES ovarian
  GI50: 1.19 µM
  TGI: > 100 µM
SK-MEL-2 melanoma
  GI50: 4.52 µM
  TGI: > 100 µM
SK-MEL-28 melanoma
  GI50: 1.1 µM
  TGI: > 78 µM

## NC(=NCCCCCCN=C(N)/N=C(\N)Nc1ccc(Cl)cc1)/N=C(\N)Nc1ccc(Cl)cc1
786-0 renal
  GI50: 1.6 µM
  TGI: 5.8 µM
A498 renal
  GI50: 1.6 µM
  TGI: 6.22 µM
HL-60(TB) leukemia
  GI50: 1.1 µM
  TGI: 2.49 µM
HOP-62 NSCLC
  GI50: 1.33 µM
  TGI: 4.06 µM
MCF7 breast
  GI50: 1.6 µM
  TGI: 5.49 µM
MDA-MB-435
  GI50: 1.54 µM
  TGI: 5.94 µM
NCI-H460 lung
  GI50: 0.929 µM
  TGI: 1.92 µM
NCI/ADR-RES ovarian
  GI50: 4.09 µM
  TGI: 50 µM
SK-MEL-2 melanoma
  GI50: 1.31 µM
  TGI: 3.18 µM
SK-MEL-28 melanoma
  GI50: 1.7 µM
  TGI: 6 µM

## O=C(O)CNc1ccc2c(c1)Cc1cc(Br)ccc1-2
786-0 renal
  TGI: > 84.5 µM
A498 renal
  TGI: 85.8 µM
HL-60(TB) leukemia
  TGI: > 100 µM
HOP-62 NSCLC
  TGI: > 67.8 µM
MCF7 breast
  TGI: > 100 µM
MDA-MB-435
  TGI: 45 µM
NCI-H460 lung
  TGI: > 60.3 µM
NCI/ADR-RES ovarian
  TGI: > 63.3 µM
SK-MEL-2 melanoma
  TGI: > 79 µM
SK-MEL-28 melanoma
  TGI: > 100 µM

## O=C1/C(=C/c2ccc(Cl)cc2)CCC1CNc1ccc(Cl)cc1 (stereo not given)
786-0 renal
  TGI: 6.73 µM
A498 renal
  TGI: 54.8 µM
HL-60(TB) leukemia
  TGI: 22.1 µM
HOP-62 NSCLC
  TGI: 56.1 µM
MCF7 breast
  TGI: 10.8 µM
MDA-MB-435
  TGI: 37.6 µM
NCI-H460 lung
  TGI: > 100 µM
NCI/ADR-RES ovarian
  TGI: 67.1 µM
SK-MEL-2 melanoma
  TGI: 58.5 µM
SK-MEL-28 melanoma
  TGI: 35.9 µM
